Source: US8710055B2, “Triazolylphenyl sulfonamides as serine/threonine kinase inhibitors” (Boehringer Ingelheim International GmbH, priority 2010, dated 2014)
pEC50: −log10 of the molar value.

These compounds were tested on SK-MEL-28 cells (B-RAF V600E mutated) (assay: Inhibition of the proliferation of cultivated human melanoma cells (SK-MEL-28), AlamarBlue). Details: 72 h incubation.
Format: cell-based
Protocol: Measurement of the Inhibition of the Proliferation of Cultivated Human Melanoma Cells (SK-MEL-28, B-RAF^[…] Mutated)
For measuring the proliferation of cultivated human tumour cells, cells of the melanoma cell line SK-MEL-28 [from American Type Culture Collection (ATCC)] are cultivated in MEM medium, supplemented with 10% foetal calf serum, 2% sodium bicarbonate, 1 mM sodium pyruvate, 1% non-essential amino acids (e.g. from Cambrex, # BE13-114E) and 2 mM glutamine. SK-MEL-28 cells are placed in 96-well flat bottomed dishes in a density of 2500 cells per well in supplemented MEM medium (see above) and incubated overnight in an incubator (at 37° C. and 5% CO2). The active substances are added to the cells in different concentrations, so that a concentration range of 50 μM to 3.2 nM is covered. If necessary the initial concentration of 50 μM is changed to 10 μM or 2 μM and further dilution is carried out accordingly (up to 0.6 nM or 0.12 nM). After an incubation period of a further 72 h 20 μL AlamarBlue reagent (Serotec Ltd., # BUF012B) are added to each well and the cells are incubated for a further 3-6 h. The colour change of the AlamarBlue reagent is determined in a fluorescence spectrophotometer (e.g. Gemini, Molecular Devices). EC50 values are calculated using a software program (GraphPadPrizm).

| pEC50 | SMILES |
| --- | --- |
| 6.80 | COc1cncc(-c2cn(-c3c(F)ccc(NS(=O)(=O)c4ccco4)c3F)nn2)c1 [Example I-47] |
| 6.39 | COc1cncc(-c2cn(-c3c(Cl)ccc(NS(=O)(=O)C(C)C)c3F)nn2)c1 [Example I-41] |
| 6.45 | CCCS(=O)(=O)Nc1ccc(F)c(-n2cc(-c3cncc(OCC)c3)nn2)c1F [Example I-35] |
| 5.99 | CCCS(=O)(=O)Nc1ccc(F)c(-n2cc(-c3cnc(NC4CCN(CCOC)CC4)nc3)nn2)c1F [Example I-13] |
| 7.21 | O=S(=O)(Nc1ccc(F)c(-n2cc(-c3cncc(Cl)c3)nn2)c1Cl)c1ccoc1 [Example I-71] |
| 6.31 | COc1cncc(-c2cn(-c3c(F)ccc(NS(=O)(=O)C(C)C)c3F)nn2)c1 [Example I-19] |
| 6.66 | CCCS(=O)(=O)Nc1ccc(F)c(-n2cc(-c3cncc(OC(C)C)c3)nn2)c1F [Example I-34] |
| 6.56 | CCCS(=O)(=O)Nc1ccc(F)c(-n2cc(-c3cncc(OC)c3)nn2)c1Cl [Example I-75] |
| 5.74 | CCCS(=O)(=O)Nc1ccc(F)c(-n2cc(-c3cccnc3)nn2)c1F [Example I-15] |
| 6.25 | CCCS(=O)(=O)Nc1ccc(F)c(-n2cc(-c3ccc(NC(C)=O)nc3)nn2)c1F [Example I-6] |
| 7.26 | CCCS(=O)(=O)Nc1ccc(F)c(-n2cc(-c3cncc(N4CCN(CC)CC4)c3)nn2)c1Cl [Example I-66] |
| 8.22 | CC(C)N1CCN(c2cncc(-c3cn(-c4c(F)ccc(NS(=O)(=O)c5ccoc5)c4Cl)nn3)c2)CC1 [Example I-68] |
| 8.40 | O=S(=O)(Nc1ccc(F)c(-n2cc(-c3cncc(N4CCN(C5CC5)CC4)c3)nn2)c1Cl)c1ccoc1 [Example I-67] |
| 7.42 | CCCS(=O)(=O)Nc1ccc(F)c(-n2cc(-c3cncc(N4CCN(CC5CC5)CC4)c3)nn2)c1Cl [Example I-64] |
| 7.14 | O=S(=O)(Nc1ccc(F)c(-n2cc(-c3cncc(Br)c3)nn2)c1Cl)c1ccoc1 [Example I-70] |
| 6.55 | CCCS(=O)(=O)Nc1ccc(F)c(-n2cc(-c3cncc(Br)c3)nn2)c1F [Example I-7] |
| 6.97 | CCCS(=O)(=O)Nc1ccc(F)c(-n2cc(-c3cncc(N4CCN(CC5CC5)CC4)c3)nn2)c1F [Example I-10] |
| 6.32 | COc1cncc(-c2cn(-c3c(F)ccc(NS(=O)(=O)CC4CC4)c3F)nn2)c1 [Example I-46] |
| 6.36 | CCCCS(=O)(=O)Nc1ccc(F)c(-n2cc(-c3cncc(OC)c3)nn2)c1F [Example I-43] |
| 5.84 | CCCS(=O)(=O)Nc1ccc(F)c(-n2cc(-c3cncc(N(C)CCN4CCOCC4)c3)nn2)c1F [Example I-31] |
| 6.23 | CCCS(=O)(=O)Nc1ccc(F)c(-n2cc(-c3cncc(OCCOC)c3)nn2)c1F [Example I-36] |
| 5.78 | CCCS(=O)(=O)Nc1ccc(F)c(-n2cc(-c3ccc(N)nc3)nn2)c1F [Example I-5] |
| 6.94 | CCCS(=O)(=O)Nc1ccc(F)c(-n2cc(-c3cncc(-n4cnc(C)c4)c3)nn2)c1F [Example I-32] |

| pEC50 | SMILES |
| --- | --- |
| 6.95 | CCCS(=O)(=O)Nc1ccc(F)c(-n2cc(-c3cncc(N4CCN(CC)CC4)c3)nn2)c1F [Example I-1] |
| 6.64 | CC(C)S(=O)(=O)Nc1ccc(F)c(-n2cc(-c3cncc(N4CCN(CC5CC5)CC4)c3)nn2)c1F [Example I-22] |
| 5.77 | CCCS(=O)(=O)Nc1ccc(F)c(-n2cc(-c3cnn(C)c3C)nn2)c1F [Example I-14] |
| 7.49 | CCCS(=O)(=O)Nc1ccc(F)c(-n2cc(-c3cncc(N4CCN(C5CC5)CC4)c3)nn2)c1Cl [Example I-65] |
| 8.15 | O=S(=O)(Nc1ccc(F)c(-n2cc(-c3cncc(N4CCN(CC5CC5)CC4)c3)nn2)c1Cl)c1ccoc1 [Example I-54] |
| 7.43 | CC(C)CS(=O)(=O)Nc1ccc(F)c(-n2cc(-c3cncc(N4CCN(C5CC5)CC4)c3)nn2)c1F [Example I-29] |
| 6.88 | CCCS(=O)(=O)Nc1ccc(F)c(-n2cc(-c3cncc(N4CCN(C(C)(C)C)CC4)c3)nn2)c1F [Example I-9] |
| 7.15 | CCCS(=O)(=O)Nc1ccc(F)c(-n2cc(-c3cncc(N4CCN(C5CCOC5)CC4)c3)nn2)c1F (centres unmarked) [Example I-58] |
| 6.03 | CCCS(=O)(=O)Nc1ccc(F)c(-n2cc(-c3cncc(OCCN(C)C(C)C)c3)nn2)c1F [Example I-37] |
| 7.49 | COc1cncc(-c2cn(-c3c(F)ccc(NS(=O)(=O)c4ccoc4)c3Cl)nn2)c1 [Example I-55] |
| 7.19 | CCCS(=O)(=O)Nc1ccc(F)c(-n2cc(-c3cncc(N4CCN(C(C)(C)C)CC4)c3)nn2)c1Cl [Example I-76] |
| 6.17 | COCCS(=O)(=O)Nc1ccc(F)c(-n2cc(-c3cncc(N4CCN(C5CC5)CC4)c3)nn2)c1F [Example I-56] |
| 6.67 | CCCS(=O)(=O)Nc1ccc(F)c(-n2cc(-c3cncc(OC)c3)nn2)c1F [Example I-2] |
| 7.62 | COc1cncc(-c2cn(-c3c(F)ccc(NS(=O)(=O)c4ccoc4)c3F)nn2)c1 [Example I-45] |
| 6.70 | CCCS(=O)(=O)Nc1ccc(F)c(-n2cc(-c3cncc(N4CCOCC4)c3)nn2)c1F [Example I-12] |
| 7.09 | CCCS(=O)(=O)Nc1ccc(F)c(-n2cc(-c3cncc(N4CCN(CCOCC)CC4)c3)nn2)c1F [Example I-3] |
| 7.01 | CCCS(=O)(=O)Nc1ccc(F)c(-n2cc(-c3cncc(N4CCN(C5CCC5)CC4)c3)nn2)c1F [Example I-59] |
| 6.27 | CCCS(=O)(=O)Nc1ccc(F)c(-n2cc(-c3cncc(C)c3)nn2)c1F [Example I-4] |
| 6.34 | CC(C)S(=O)(=O)Nc1ccc(F)c(-n2cc(-c3cncc(N4CCN(C)CC4)c3)nn2)c1F [Example I-23] |
| 8.00 | C#CCN1CCN(c2cncc(-c3cn(-c4c(F)ccc(NS(=O)(=O)c5ccoc5)c4Cl)nn3)c2)CC1 [Example I-72] |
| 6.17 | CCCS(=O)(=O)Nc1ccc(F)c(-n2cc(-c3cncc(OC4CCOCC4)c3)nn2)c1F [Example I-33] |
| 6.84 | CCCS(=O)(=O)Nc1ccc(Cl)c(-n2cc(-c3cncc(OC)c3)nn2)c1F [Example I-39] |
| 5.91 | CCCS(=O)(=O)Nc1ccc(F)c(-n2cc(-c3cncc(N(C)CCOC)c3)nn2)c1F [Example I-30] |

| pEC50 | SMILES |
| --- | --- |
| 6.82 | CCCS(=O)(=O)Nc1ccc(F)c(-n2cc(-c3cncc(N4CCN(CC#N)CC4)c3)nn2)c1F [Example I-52] |
| 8.05 | O=S(=O)(Nc1ccc(F)c(-n2cc(-c3cncc(N4CCN(C5CC5)CC4)c3)nn2)c1F)c1ccoc1 [Example I-60] |
| 6.26 | CCCS(=O)(=O)Nc1ccc(F)c(-n2cc(-c3cncc(-n4cc(C)nc4C)c3)nn2)c1F [Example I-48] |
| 7.12 | CCCS(=O)(=O)Nc1ccc(F)c(-n2cc(-c3cncc(N4CCN(C5CC5)CC4)c3)nn2)c1F [Example I-18] |
| 6.50 | CC(C)N1CCN(c2cncc(-c3cn(-c4c(F)ccc(NS(=O)(=O)C(C)C)c4F)nn3)c2)CC1 [Example I-21] |
| 6.61 | CC(C)S(=O)(=O)Nc1ccc(F)c(-n2cc(-c3cncc(N4CCN(C(C)(C)C)CC4)c3)nn2)c1F [Example I-20] |
| 7.36 | C#CCN1CCN(c2cncc(-c3cn(-c4c(F)ccc(NS(=O)(=O)CCC)c4Cl)nn3)c2)CC1 [Example I-73] |
| 6.51 | CCCS(=O)(=O)Nc1ccc(F)c(-n2cc(-c3cncc(-n4cnc(C(F)(F)F)c4)c3)nn2)c1F [Example I-57] |
| 6.49 | CCS(=O)(=O)Nc1ccc(Cl)c(-n2cc(-c3cncc(OC)c3)nn2)c1F [Example I-40] |
| 7.01 | CC(C)CS(=O)(=O)Nc1ccc(F)c(-n2cc(-c3cncc(N4CCN(C(C)C)CC4)c3)nn2)c1F [Example I-26] |
| 6.44 | COc1cncc(-c2cn(-c3c(F)ccc(NS(=O)(=O)c4cc(F)ccc4F)c3F)nn2)c1 [Example I-38] |
| 6.53 | COc1cncc(-c2cn(-c3c(F)ccc(NS(=O)(=O)c4cccnc4)c3F)nn2)c1 [Example I-42] |
| 7.02 | CC(C)CS(=O)(=O)Nc1ccc(F)c(-n2cc(-c3cncc(N4CCN(C(C)(C)C)CC4)c3)nn2)c1F [Example I-27] |
| 7.17 | C#CCN1CCN(c2cncc(-c3cn(-c4c(F)ccc(NS(=O)(=O)CCC)c4F)nn3)c2)CC1 [Example I-53] |
| 8.00 | CC(C)N1CCN(c2cncc(-c3cn(-c4c(F)ccc(NS(=O)(=O)c5ccoc5)c4F)nn3)c2)CC1 [Example I-61] |
| 7.06 | CCCS(=O)(=O)Nc1ccc(F)c(-n2cc(-c3cncc(N4CCN(CCOC(C)C)CC4)c3)nn2)c1F [Example I-16] |
| 5.90 | CCCS(=O)(=O)Nc1ccc(F)c(-n2cc(-c3cncc(F)c3)nn2)c1F [Example I-17] |
| 7.06 | CC(C)CS(=O)(=O)Nc1ccc(F)c(-n2cc(-c3cncc(N4CCN(CC5CC5)CC4)c3)nn2)c1F [Example I-28] |
| 6.94 | CCCS(=O)(=O)Nc1ccc(F)c(-n2cc(-c3cncc(N4CCN(C5COC5)CC4)c3)nn2)c1F [Example I-51] |
| 8.30 | CCN1CCN(c2cncc(-c3cn(-c4c(F)ccc(NS(=O)(=O)c5ccoc5)c4Cl)nn3)c2)CC1 [Example I-74] |
| 6.30 | CCCS(=O)(=O)Nc1ccc(F)c(-n2cc(-c3cncnc3)nn2)c1F [Example I-11] |
| 6.31 | CCCS(=O)(=O)Nc1ccc(F)c(-n2cc(-c3cncc(N4CCNCC4)c3)nn2)c1F [Example I-50] |
